According to patent US8962637B2, “Bicyclic compounds and their uses as dual c-SRC/JAK inhibitors” (Debiopharm S.A., priority 2010, dated 2015):

Key:
[1] = molecular target: JAK2 (Homo sapiens (Human), UniProt O60674); experiment: TR-FRET JAK2 kinase assay; format: biochemical; details: ATP 10 μM; for inhibition at 0.1 µM: read-out: JAK2 % inhibition at 100 nM, 100 nM; for inhibition at 1 µM: read-out: JAK2 % inhibition at 1 μM
Procedure: (§1) Compounds were screened in the TR-FRET assay for JAK2 and c-Src kinase inhibition. Ultra light poly GT (Perkin Elmer) was used as the substrate for JAK2 and c-Src with the ATP concentration of 10 μM and 50 μM, respectively. […] The dose-response curve fitting was done using GraphPad Prism software.

[2] = molecular target: c-Src (Homo sapiens (Human), UniProt P12931); experiment: TR-FRET c-Src kinase assay; format: biochemical; details: ATP 50 μM; for inhibition at 0.1 µM: read-out: c-SRC % inhibition at 100 nM, 100 nM; for inhibition at 1 µM: read-out: c-SRC % inhibition at 1 μM
Procedure: as §1

[3] = molecular target: JAK1 (Homo sapiens (Human), UniProt P23458); experiment: JAK1 kinase inhibition; format: biochemical; details: for inhibition at 0.1 µM: read-out: JAK1 % inhibition at 100 nM; for inhibition at 1 µM: read-out: JAK1 % inhibition at 1 μM
[4] = test system: Mda-Mb-231 cells; experiment: Cell viability assay (XTT assay), Mda-Mb-231; format: cell-based; details: Homo sapiens, 72 hrs
Outline: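 MDA-MB-231 cells seeded and dosed next day in triplicate, incubated 72 h. Medium replaced with XTT working solution for 2-5 h, absorbance read at 465 nm, and EC50 values derived from the readings.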

[5] = test system: A549 cells; experiment: Cell viability assay (XTT assay), A549; format: cell-based; details: Homo sapiens, 72 hrs
Procedure: Next day compounds were added to cells and incubated for 72 hrs. Compound treatment was done in triplicates. After 72 hrs cell culture media was aspirated from the wells and XTT working solution was added and plates were incubated for 2-5 hrs. […] EC50 values were calculated using Graphpad Prism. Tumor cell lines used in the examples of the present invention were procured from ATCC. Description of the cell lines is included in the following table: […]

[6] = test system: A431 cancer cell line; experiment: Inhibition of cell growth in A431; format: cell-based; details: Homo sapiens, A-431
[7] = test system: pStat3; experiment: In-Cell-Western blot assay for pStat3 (ICW) in A431 cells; format: cell-based; details: Homo sapiens, A-431, 2 hrs, read-out: pSTAT3 inhibition
Outline: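 Serum-starved (overnight) A431 cells treated with compound for 2 hrs, then fixed, permeabilized and probed with phospho-Stat3 antibody plus europium-labelled secondary. Europium signal normalized to Hoechst for cell number; IC50 calculated from normalized values.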

[8] = Volume distribution; details: in vivo
Description: Table 8 provides some volume distribution values of the compounds of the present invention.

[9] = test system: A431 tumor cells; experiment: A431 xenograft model; format: in vivo, athymic nude mice; details: A431 Xenograft model, 100 MPK
Procedure: SC injection of 5×10^6 A431 tumor cells with Matrigel® on the left flank of 24 female athymic nude mice. Randomization of mice 14 days after tumor cell injection into 3 groups of 8 mice each with a mean tumor volume of 90±1 mm3.
(§2) Formulation: 20% HPC, 2% ethanol solution in PBS for the compound No. 45
• Normal saline for Gefitinib® Dosing route: Oral for the compound No. 45 and Gefitinib® Dose Volume: 10 mL/Kg body weight Dosing schedule: Once daily for 14 consecutive days (Q1Dx14) PK-PD experiment in A431 model: Tumors were allowed to grow to 250 mm^3 size. Compounds were dosed once and PBMCs and tumors were collected at Tmax for pStat3 estimation. Plasma was also collected to estimate drug concentration estimation. Efficacy experiment in A431 model: Dosage: • Group1. Vehicle control • Group2. Compound No. 45—150 MPK • Group3. […] Plasma collected for drug concentration estimation and whole blood was collected to isolate PBMCs to determine pStat3 inhibition by flow cytometry as PD readout. Tumors were snap frozen in liquid nitrogen and stored at −80° C. to estimate pStat3 by flow cytometry as PD readout Determination of Plasma Drug Concentration: […]

[10] = test system: B16F10 tumor cells; experiment: B16F10 metastasis model; format: in vivo, C57B16 mice; details: B16F10 model, 5 MPK
Procedure: IV injection of 0.1×10^6 B16F10 tumor cells in the tail vain of 60 male C57B16 mice. Randomization of mice one day after tumor cell injection into 4 groups of 15 mice. Out of 15, 6 mice were sacrificed on 14th day for counting metastatic foci on lungs. Rest 9 mice were dosed continuously till morbidity/mortality for recording survival.
as §2
Plasma collected for drug concentration estimation and whole blood was collected to isolate PBMCs to determine pStat3 inhibition by flow cytometry as PD readout.

[11] = test system: pStat3; experiment: Quantification of pStat3 in PBMCs by flow cytometry; format: in vivo, mice; details: B16F10 model, 5 MPK
Procedure: Phosphorylation of Stat3 was stimulated by addition of hIL6 (10 ug/mL) for 30 min at 37° C. Blood was fixed with formaldehyde (final 2% v/v) for 10 min at 37° C.
Buffy coat (PBMCs) was separated by aspirating translucent layer using pipetteman and washed twice with PBS-1×
Pre chilled PBMC's were permeabilized by adding ice cold Methanol, while vortexing gently (final volume 90% MeOH v/v) and incubated for 30 min on ice.
Permeabilized PBMCs were washed with PBS once. PBMCs re-suspended to 2×10^6 cells in 200 μL of incubation buffer for 10 min at room temperature (RT). Primary Ab was added (1:100 dilution) and incubated 45 min at RT. Washed as before (twice) and re-suspended in fluorochrome conjugated secondary Ab (1:500 dilution) and incubated at RT in dark for 30 min. Washed and re-suspended in […] PBS.
Measured pStat3 using FACS caliber machine (BD). Unstained PBMCs was used for cytometry settings. […] Histograms (cell number V/s FL1-H) were plotted. Percentage of cells that are phosphorylated by IL6 stimulation (M2 population), and inhibition of phosphorylation by inhibitor (decrease in M2 population) are calculated on histogram by marking peaks, M1 and M2.

JAK2, sequence (O60674 whole entry): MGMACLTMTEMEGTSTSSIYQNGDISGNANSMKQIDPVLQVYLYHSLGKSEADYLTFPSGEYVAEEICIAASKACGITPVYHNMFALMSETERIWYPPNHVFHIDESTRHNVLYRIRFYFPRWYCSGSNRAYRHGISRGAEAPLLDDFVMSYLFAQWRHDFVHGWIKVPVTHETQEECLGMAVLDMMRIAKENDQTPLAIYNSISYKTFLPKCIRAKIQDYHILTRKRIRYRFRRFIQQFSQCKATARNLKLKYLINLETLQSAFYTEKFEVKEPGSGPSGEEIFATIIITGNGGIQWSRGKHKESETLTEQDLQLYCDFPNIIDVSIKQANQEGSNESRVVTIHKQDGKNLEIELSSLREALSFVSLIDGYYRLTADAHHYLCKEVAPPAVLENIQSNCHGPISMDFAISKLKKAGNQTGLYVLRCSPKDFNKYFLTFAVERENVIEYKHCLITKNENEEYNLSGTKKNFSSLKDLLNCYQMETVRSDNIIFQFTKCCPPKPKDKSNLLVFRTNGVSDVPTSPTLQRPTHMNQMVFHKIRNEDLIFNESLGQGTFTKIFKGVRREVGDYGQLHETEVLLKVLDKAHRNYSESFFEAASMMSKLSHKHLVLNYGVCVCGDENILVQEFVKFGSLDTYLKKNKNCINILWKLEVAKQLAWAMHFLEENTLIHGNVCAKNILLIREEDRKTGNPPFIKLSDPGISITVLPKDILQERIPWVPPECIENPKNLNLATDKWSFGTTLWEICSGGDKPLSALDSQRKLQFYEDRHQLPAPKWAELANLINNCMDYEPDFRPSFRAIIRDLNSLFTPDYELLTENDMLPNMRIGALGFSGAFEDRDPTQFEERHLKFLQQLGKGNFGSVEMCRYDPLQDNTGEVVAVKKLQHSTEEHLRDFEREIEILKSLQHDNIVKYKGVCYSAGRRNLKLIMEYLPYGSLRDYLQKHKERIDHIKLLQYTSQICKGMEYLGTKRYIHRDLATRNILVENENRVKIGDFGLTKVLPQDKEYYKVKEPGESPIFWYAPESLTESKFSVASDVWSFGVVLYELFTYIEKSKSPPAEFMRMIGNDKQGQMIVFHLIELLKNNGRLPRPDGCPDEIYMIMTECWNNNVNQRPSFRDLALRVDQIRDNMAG
JAK1, sequence (P23458 whole entry): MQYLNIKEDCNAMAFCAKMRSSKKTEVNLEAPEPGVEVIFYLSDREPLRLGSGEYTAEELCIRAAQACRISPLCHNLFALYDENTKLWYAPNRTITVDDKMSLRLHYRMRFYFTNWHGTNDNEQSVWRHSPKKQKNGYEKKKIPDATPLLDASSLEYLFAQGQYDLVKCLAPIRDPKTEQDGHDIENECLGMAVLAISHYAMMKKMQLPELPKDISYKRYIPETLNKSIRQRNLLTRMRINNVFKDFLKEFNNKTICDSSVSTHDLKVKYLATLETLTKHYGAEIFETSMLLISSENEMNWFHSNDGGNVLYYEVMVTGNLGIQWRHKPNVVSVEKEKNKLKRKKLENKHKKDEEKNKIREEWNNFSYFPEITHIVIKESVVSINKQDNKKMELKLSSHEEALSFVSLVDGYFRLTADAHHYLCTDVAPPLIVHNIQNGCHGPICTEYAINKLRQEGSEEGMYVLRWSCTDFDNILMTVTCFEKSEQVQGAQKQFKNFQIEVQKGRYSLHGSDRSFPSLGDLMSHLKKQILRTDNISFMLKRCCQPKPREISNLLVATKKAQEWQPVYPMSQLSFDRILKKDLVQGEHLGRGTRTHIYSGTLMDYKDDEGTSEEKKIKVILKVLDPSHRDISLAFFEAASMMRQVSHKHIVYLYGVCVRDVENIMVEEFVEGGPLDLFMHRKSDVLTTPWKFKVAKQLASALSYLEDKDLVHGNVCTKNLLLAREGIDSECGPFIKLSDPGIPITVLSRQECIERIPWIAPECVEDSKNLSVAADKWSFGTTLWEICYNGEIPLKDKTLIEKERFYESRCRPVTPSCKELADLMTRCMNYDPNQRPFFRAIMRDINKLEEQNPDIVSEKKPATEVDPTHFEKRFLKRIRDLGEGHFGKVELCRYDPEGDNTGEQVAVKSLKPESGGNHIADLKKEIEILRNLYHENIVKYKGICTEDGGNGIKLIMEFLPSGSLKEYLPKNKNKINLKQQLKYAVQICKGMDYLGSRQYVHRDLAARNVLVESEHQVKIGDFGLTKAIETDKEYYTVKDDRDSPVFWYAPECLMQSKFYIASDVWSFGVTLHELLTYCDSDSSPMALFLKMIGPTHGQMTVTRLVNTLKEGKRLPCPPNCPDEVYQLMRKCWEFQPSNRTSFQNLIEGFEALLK
c-Src, sequence (P12931 whole entry, looked up): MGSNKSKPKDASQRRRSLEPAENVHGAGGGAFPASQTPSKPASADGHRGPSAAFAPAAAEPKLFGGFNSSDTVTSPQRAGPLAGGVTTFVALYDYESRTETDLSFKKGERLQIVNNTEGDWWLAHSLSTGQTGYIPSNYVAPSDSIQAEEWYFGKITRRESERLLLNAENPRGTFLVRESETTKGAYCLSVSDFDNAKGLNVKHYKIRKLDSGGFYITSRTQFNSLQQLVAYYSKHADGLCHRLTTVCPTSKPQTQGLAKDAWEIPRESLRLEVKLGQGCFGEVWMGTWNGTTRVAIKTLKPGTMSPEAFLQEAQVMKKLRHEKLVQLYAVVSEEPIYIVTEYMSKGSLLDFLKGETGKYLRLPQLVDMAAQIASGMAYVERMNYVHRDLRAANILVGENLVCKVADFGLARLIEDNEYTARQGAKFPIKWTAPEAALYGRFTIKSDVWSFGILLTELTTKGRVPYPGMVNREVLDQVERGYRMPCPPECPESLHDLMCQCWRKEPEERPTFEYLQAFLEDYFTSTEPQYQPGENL

| Compound | IC50 [1] | IC50 [2] | inhibition at 0.1 µM [3] | inhibition at 1 µM [3] | EC50 [4] | EC50 [5] | EC50 [6] | IC50 [7] | Vd [8] | inhibition at 0.1 µM [1] | inhibition at 1 µM [1] | inhibition at 0.1 µM [2] | inhibition at 1 µM [2] | distribution volume (in words) [8] | % TGI [9] | Metastasis Inhibition [10] | PBMCs % pStat3 inhibition [11] |
| --- | --- | --- | --- | --- | --- | --- | --- | --- | --- | --- | --- | --- | --- | --- | --- | --- | --- |
| Cc1ccc(NC(=O)CCC(F)(F)F)cc1N1CCc2nc(Nc3ccc(OCCN4CCCC4)cc3)ncc2C1 [Compound 147, 4,4,4-Trifluoro-N-(4-methyl-3-{2-[4-(2-pyrrolidin-1-yl-ethoxy)-phenylamino]-7,8-dihydro-5H-pyrido[4,3-d]pyrimidin-6-yl}-phenyl)-butyramide] | 21 nM | – | – | – | 720 nM | – | – | – | 20.6 L/kg | 88% | 93% | 67% | 90% | – | – | – | – |
| COc1cc2ncnc(Nc3ccc(F)c(Cl)c3)c2cc1OCCCN1CCOCC1 [Gefitinib, reference compound] | – | – | – | – | – | – | – | – | – | – | – | – | – | – | 94.25% | – | – |
| CC(=O)O[C@H]1C(=O)[C@@]2(C)[C@H]([C@H](OC(=O)c3ccccc3)[C@]3(O)C[C@H](OC(=O)[C@H](O)[C@@H](NC(=O)c4ccccc4)c4ccccc4)C(C)=C1C3(C)C)[C@]1(OC(C)=O)CO[C@@H]1C[C@@H]2O [Taxol, paclitaxel, reference compound] | – | – | – | – | – | – | – | – | – | – | – | – | – | – | – | 32% | 25% |

The next lines start with results.

| IC50 [1] | IC50 [2] | inhibition at 0.1 µM [3] | inhibition at 1 µM [3] | EC50 [4] | EC50 [5] | EC50 [6] | IC50 [7] | Vd [8] | inhibition at 0.1 µM [1] | inhibition at 1 µM [1] | inhibition at 0.1 µM [2] | inhibition at 1 µM [2] | distribution volume (in words) [8] | Compound | % TGI [9] | Metastasis Inhibition [10] | PBMCs % pStat3 inhibition [11] |
| --- | --- | --- | --- | --- | --- | --- | --- | --- | --- | --- | --- | --- | --- | --- | --- | --- | --- |
| 3 nM | 2 nM | 85% | 89% | 44 nM | 10 nM | 92 nM | 150 nM | 7.7 L/kg | – | – | – | – | – | Cc1ccc(NC(=O)c2cccc(C(F)(F)F)c2)cc1N1CCc2nc(Nc3ccc(C(=O)N4CCN(C)CC4)cc3)ncc2C1 [Compound 17, N-(4-Methyl-3-{2-[4-(4-methyl-piperazine-1-carbonyl)-phenylamino]-7,8-dihydro-5H-pyrido[4,3-d]pyrimidin-6-yl}-phenyl)-3-trifluoromethyl-benzamide] | – | – | – |
| 18 nM | 2 nM | – | – | 1200 nM | – | – | – | 11.8 L/kg | – | – | – | – | – | Cc1ccc(NC(=O)CC(C)C(F)(F)F)cc1N1CCc2nc(Nc3ccc(OCCN4CCCC4)cc3)ncc2C1 (centres unmarked) [Compound 155, 4,4,4-Trifluoro-3-methyl-N-(4-methyl-3-{2-[4-(2-pyrrolidin-1-yl-ethoxy)-phenylamino]-7,8-dihydro-5H-pyrido[4,3-d]pyrimidin-6-yl}-phenyl)-butyramide] | – | – | – |
| 6 nM | 27 nM | – | – | 1380 nM | 1140 nM | 600 nM | 350 nM | 3.35 L/kg | 92% | 97% | 73% | 81% | – | CN1CCN(c2ccc(Nc3ncc4c(n3)CCN(c3cc(NC(=O)c5cccc(C(F)(F)F)c5)ccc3Cl)C4=O)cc2)CC1 [Compound 162, N-(4-Chloro-3-{2-[4-(4-methyl-piperazin-1-yl)-phenylamino]-5-oxo-7,8-dihydro-5H-pyrido[4,3-d]pyrimidin-6-yl}-phenyl)-3-trifluoromethyl-benzamide] | – | – | – |
| 19 nM | 20 nM | 61% | 84% | 1300 nM | 2100 nM | – | 471 nM | 0.794 L/kg | 92% | 97% | 74% | 87% | weak volume of distribution | Cc1cc(Nc2ncc3c(n2)CCN(c2cc(NC(=O)c4cccc(C(F)(F)F)c4)ccc2Cl)C3=O)ccc1N1CCN(C)CC1 [Compound 171, N-(4-Chloro-3-{2-[3-methyl-4-(4-methyl-piperazin-1-yl)-phenylamino]-5-oxo-7,8-dihydro-5H-pyrido[4,3-d]pyrimidin-6-yl}-phenyl)-3-trifluoromethyl-benzamide] | – | – | – |
